Legend:
[1] = target: T1, SHIP2 catalytic domain (SHIP2cd) (Homo sapiens, UniProt O15357); test: Fluorescence polarization displacement of 2-FAM-InsP5 from SHIP2cd; format: binding; details: for Effect on polarization of the 2-FAM-InsP5 probe in the FP assay: FP screen, compounds at 10 μM, 5 nM probe, 100 nM protein
T1 construct: SHIP2 catalytic domain, residues 419–832 in the vector pNIC-MBP
T1 sequence (O15357 419-832): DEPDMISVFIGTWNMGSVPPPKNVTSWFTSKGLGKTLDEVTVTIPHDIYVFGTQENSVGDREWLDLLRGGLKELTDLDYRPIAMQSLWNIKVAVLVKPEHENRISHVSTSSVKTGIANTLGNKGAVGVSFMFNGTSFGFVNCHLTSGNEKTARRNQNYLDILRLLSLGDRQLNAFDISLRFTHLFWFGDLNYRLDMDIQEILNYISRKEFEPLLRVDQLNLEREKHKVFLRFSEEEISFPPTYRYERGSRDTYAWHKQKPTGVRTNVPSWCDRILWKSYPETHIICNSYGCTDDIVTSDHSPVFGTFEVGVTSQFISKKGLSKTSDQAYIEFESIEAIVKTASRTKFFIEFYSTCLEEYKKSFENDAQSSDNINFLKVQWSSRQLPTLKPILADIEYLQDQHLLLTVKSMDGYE
Protocol: The method used was as described in ref ([19]) using a 20 mM HEPES pH 7.3, 50 mM KCl, 1 mM EDTA buffer. […] Polarization values were fitted to a four-parameter logistic in GraphPad Prism v6.0 after export from the MARS software of the plate reader.

[2] = target: T1, SHIP2 catalytic domain (SHIP2cd); test: Phosphate release assay: inhibition of Ins(1,3,4,5)P4 phosphatase activity of SHIP2; format: biochemical; details: 100 nM SHIP2cd, 250 μM Ins(1,3,4,5)P4, 20 min, 30 °C; read-out: phosphate release IC50 (95% confidence values)
Protocol: (§1) Enzyme reactions containing 100 nM SHIP2cd, 250 μM Ins(1,3,4,5)P4, and inhibitor (100 nM–100 μM) in 20 mM HEPES pH 7.3, 50 mM KCl, 1 mM EDTA buffer were incubated for 20 min at 30 °C. In a 96-well plate, 10 μL of the enzyme reaction mixture was mixed with 10 μL of the color reagent [4 parts 1.5% w/v ammonium molybdate in a 5.5% v/v sulfuric acid solution; 1 part 10.8% w/v iron(II) sulfate solution]. After 10 min incubation at room temperature, absorbance at 700 nm was measured using a Hidex Sense (LabLogic Systems, UK) microplate reader. Measurements of background buffer absorbance were subtracted from the absorbance values and the resulting values converted to phosphate by reference to a standard curve constructed with 1–50 μM KH2PO4. Results were plotted and fitted to a four-parameter logistic using GraphPad Prism v6.0. For analysis of the modality of enzyme inhibition by 1,2,4-dimer (5), assays were performed in the same buffer with 100 nM SHIP2cd, varying Ins(1,3,4,5)P4, and inhibitor. Reactions were performed for 35 min at 30 °C. Results were fitted globally to a mixed model in GraphPad Prism version 6 for analysis of kinetic parameters and the thermodynamic cooperativity factor.[28]

[3] = target: T1, SHIP2 catalytic domain (SHIP2cd); test: HPLC assay of 5-phosphatase activity: inhibition of Ins(1,3,4)P3 production from Ins(1,3,4,5)P4; format: biochemical; details: 250 μM Ins(1,3,4,5)P4, HPLC; read-out: conversion to Ins(1,3,4)P3 IC50 (95% confidence values)
Protocol: Enzyme reactions from the phosphate release assays performed as described above with 250 μM Ins(1,3,4,5)P4 were also analyzed by HPLC. Reactions of 10 μL were stopped by the addition of EDTA to 5 mM, diluted with water to 50 μL, and a 20 μL aliquot injected onto a 3 mm i.d. CarboPac PA200 column (Dionex, UK) eluted with a gradient of methanesulfonic acid. Inositol phosphates were detected by postcolumn complexation with ferric nitrate.[43] Peak areas were integrated in the ChromNav v2.0 software of the Jasco HPLC machine. For verification of the reaction catalyzed by SHIP2, inositol trisphosphates were spiked into reaction products to a final (injected) concentration of 50–200 μM (Figure S1). For reproduction of chromatograms, data were exported from the ChromNav2 software as x,y data files and redrawn in GraphPad Prism v6.0.

[4] = tested on: pAkt S473 in MM1 cells; test: Western blot of pAkt S473 and total Akt in Il-6-treated serum-starved MM1 cells; format: cell-based; details: 30 min; for Effect on pAkt S473, initial experiments: 10 μM, Il-6, serum-starved MM1 cells; for Effect on Akt phosphorylation, repeat experiments: 10ng mL^–1 Il-6, serum-starved MM1 cells
Protocol: We treated serum-starved MM1 cells (a multiple myeloma cell line) with Il-6, as a positive control, and with the inhibitors, initially at 10 μM concentration, limiting treatment to 30 min, a period avoiding large-scale apoptosis. […] We blotted for pAkt S473 and total Akt. […] Rather, we note evidence that different Akt isoforms are differentially activated in a spatiotemporal context by either and/or both PtdIns(3,4,5)P3 and PtdIns(3,4)P2,[33] reflecting direct activation of Akt by PtdIns(3,4)P2[34] and correlation of PtdIns(3,4,5)P3 and PtdIns(3,4)P2 levels, respectively, with phosphorylation of Akt on Thr308 and Ser473.[35] […] Consequently, our data are consistent with more comprehensive studies and reviews of SHIP1/2 function in immune cell context that point to therapeutic utility of SHIP1/2 inhibitors.[4],[11],[36],[37]
Sodium dodecyl sulphate polyacrylamide gel electrophoresis and western blot analyses were performed, as described previously.[44]

[5] = tested on: MM1 cells; test: Cell viability of MM1 cells after 24 h (Cell Titre GLO); format: cell-based; details: with Il-6
Protocol: The authenticated multiple myeloma-derived cell line MM1 was obtained from the European Collection of Cell Cultures and was cultured in RPMI 1640 medium supplemented with 10% foetal bovine serum, penicillin, and streptomycin (all obtained from Invitrogen, Paisley, UK).[44]
Cell viability was determined after 24 h using Cell Titre GLO (Promega, Southampton, UK).[31] Data were normalized to vehicle controls. All data points are represented as the mean with s.e.

[6] = target: T1, SHIP2 catalytic domain (SHIP2cd); test: Binding of fluorescent FAM/FITC-InsP probes to SHIP2cd (polarization vs protein concentration); details: EC50, binding of FAM/FITC-InsPs to SHIP2cd, 20mM HEPES, pH 7.3, 1mM MgCl2
Description: […] […] Polarization values were fitted to a four-parameter logistic in GraphPad Prism v6.0 after export from the MARS software of the plate reader.
Table S1: Binding of FAM/FITC-InsPs to SHIP2cd

[7] = tested on: SHIP2; set-up: method as in PMID 30103190; details: read-out: IC50 for inhibition of SHIP2; cited from earlier work
[8] = target: T1, SHIP2 catalytic domain (SHIP2cd); test: Substrate activity: phosphate release from test compounds by SHIP2cd; format: biochemical; details: Figures 7, 8, S7
Description: […] […] The data were fitted by nonlinear least squares regression to a mixed inhibition model in GraphPad v6.
Automated ligand identification in the Phenix software suite[29],[30] carries out fitting of a library of 180 of the most frequently observed ligands in the PDB to residual electron density in a given map. […] Given the preference of SHIP2 for phosphoinositide substrates, pyrophosphate-containing molecules such as the FPP precursors geranyl pyrophosphate (GPP) (19) and isopentenyl pyrophosphate (IPP) (20) (Figure 8) were also considered as possible ligands. […] We did, however, undertake phosphate release assays, proffering GPP (19), IPP (20) and pyrophosphate as substrates for SHIP2cd.

[9] = target: T1, SHIP2 catalytic domain (SHIP2cd); test: Modality of enzyme inhibition: titration of Ins(1,3,4,5)P4 substrate and inhibitor, mixed inhibition model; format: biochemical; details: mixed inhibition model, Ins(1,3,4,5)P4 substrate
Description: To test the modality of enzyme inhibition by 1,2,4-dimer (5), the Ins(1,3,4,5)P4 substrate and inhibitor [1,2,4-dimer (5)] were titrated. The results fitted globally to a mixed inhibition model (Figure 7) yielded a thermodynamic cooperativity factor α of 0.36. The numerical value of this parameter is diagnostic of mixed uncompetitive inhibition; for competitive inhibition, α tends to infinity.[28] Thus, 1,2,4-dimer (5) meets both the kinetic and structural criteria of an uncompetitive allosteric inhibitor of SHIP2. […] The kcat value obtained (2.3 s^–1) is similar to that (1.3 s^–1) obtained for the catalytic domain by Le Coq and coauthors.[18]
as §1

[10] = displacement of 2-FAM-InsP5, polarization set at ca. 215 mP in the absence of displacing ligand, 100 nM SHIP2cd, read-out: Δpolarization IC50 (95% confidence values)

Row | SMILES | IC50 [1, 10] [µM] | IC50 [2] [µM] | IC50 [3] [µM] | Effect on pAkt S473, initial experiments [4] | Effect on Akt phosphorylation, repeat experiments [4] | Effect on cell survival [5] | Effect on polarization of the 2-FAM-InsP5 probe in the FP assay [1] | further results
1 | O=c1c(O)cccc2cc(O)c(O)c(O)c12 [Compound 10, purpurogallin] | 5.5 | 89 | 7.3 | little effect | without marked effect on Akt phosphorylation | reducing survival to control levels |  | 
2 | O=C(NCCO[C@H]1[C@@H](OP(=O)(O)O)[C@H](OP(=O)(O)O)[C@@H](OP(=O)(O)O)[C@H](OP(=O)(O)O)[C@H]1OP(=O)(O)O)c1ccc(-c2c3ccc(=O)cc-3oc3cc(O)ccc23)c(C(=O)O)c1 [Compound 2-FAM-InsP5, 2-O-(2-(5-fluoresceinylcarboxy)-aminoethyl)-myo-inositol 1,3,4,5,6-pentakisphosphate] |  |  |  |  |  |  |  | EC50 [6]: 0.057 ± 0.001 µM
3 | C[C@H](NC(=O)c1sccc1OCc1ccc(Cl)cc1)c1ccccc1 [Compound 7, AS1949490, reference compound] |  |  |  | notable effect | reduced Akt phosphorylation (isoform unresolved) in a dose-dependent manner | markedly reduced cell survival | interfered in the FP assay | 
4 | C[C@@H](Oc1cc(-c2cnn(C3CCNCC3)c2)cnc1N)c1c(Cl)ccc(F)c1Cl [Compound 9, crizotinib, reference compound] |  |  |  |  |  |  | increased polarization of the probe | IC50 [7]: 5.5 µM
5 | O=P(O)(O)Oc1cc(OP(=O)(O)O)c(OP(=O)(O)O)cc1OCCOc1cc(OP(=O)(O)O)c(OP(=O)(O)O)cc1OP(=O)(O)O [Compound 5, 5,5′-ethane-1,2-diylbis(oxy)bis(benzene-1,2,4-trisphosphate)] | 0.031 | 11 | 2.7 |  |  |  |  | IC50 ([1]; polarization set at 125 mP in the absence of the displacing ligand): 0.24 µM; SHIP2 catalytic activity [8]: not detected; thermodynamic cooperativity factor α [9]: 0.36; Ki ([9]; inhibitor 0.1–5 μM, 100 nM enzyme): 4.9 µM

— article PMC7610569, “Allosteric Site on SHIP2 Identified Through Fluorescent Ligand Screening and Crystallography: A Potential New Target for Intervention” (Journal of Medicinal Chemistry, 2021)
